Measured values published in article PMC3494675, “Structure-Function Analysis of the Glioma Targeting NFL-TBS.40-63 Peptide Corresponding to the Tubulin-Binding Site on the Light Neurofilament Subunit” (PLoS ONE, 2012).
Square brackets hold non-standard residues; d marks the D form. Peptide text beside a SMILES is read from it. * marks the point of attachment. Biotin = O=C1N[C@H]2[C@H](CS[C@H]2CCCCC(=O)*)N1; pS = N[C@@H](COP(=O)(O)O)C(=O)O

Legend:
[1] = tested on: T98G human glioblastoma cells; experiment: Peptide incorporation into T98G cells (immunocytochemistry, cell counting); type: cell-based; conditions: 6 hours; for Peptide incorporation (% of cells): T98G cells, 10 µM biotinylated peptide, Alexa-labeled avidin/streptavidin fluorescence microscopy, minimum 200 cells per experiment, mean ± S.E.M., triplicated; for Cell penetration / internalization in T98G cells (in words): 10 µM, immunocytochemistry, compared to original NFL-TBS.40-63
Outline: (§1)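 Cells on cover slips were cultured 6 h with 10 μM biotinylated peptide, permeabilized, and stained with anti-β-tubulin plus fluorescent streptavidin. By fluorescence/confocal microscopy, ≥200 cells per experiment were scored for peptide uptake and for a normal versus destroyed microtubule network; at least three repeats.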

[2] = tested on: T98G human glioblastoma cells; experiment: Disintegration of the microtubule network in T98G cells (anti-tubulin immunostaining, cell counting); type: cell-based; conditions: 6 hours; for Disintegration of MT (% of cells): T98G cells, 10 µM biotinylated peptide, anti-tubulin immunostaining, minimum 200 cells per experiment, mean ± S.E.M., triplicated; for Effect on MT network of T98G / glioma cells (in words): 10 µM, immunocytochemistry
Outline: as §1

[3] = tested on: glioma cells; conditions: shown previously; cited from earlier work
Excerpt: However, contrary to the known CPPs, which are composed mostly of arginines and lysines, the NFL-TBS.40-63 peptide contains only 2 arginine residues and no lysine. […] In addition, the cell penetrating activity appears to correlate with a particular structural pattern.

[4] = Secondary structure estimation from CD spectra; type: physicochemical; conditions: KF/phosphate buffer pH 7.4, 20 µM, Reed's reference set
Protocol: Circular dichroism (CD) spectra were measured in a J-810 CD spectrometer (Jasco, Japan) in step mode (bandwidth: 2 nm; interval: 0.1 nm; response time: 0.125 s). The spectra were averaged over 3 scans to increase the signal to noise ratio. To optimize the measurements, a 1 cm×0.2 cm mini-quartz cell with four windows (Hellema, Germany) was used in such a way that the spectra from 260 to 200 nm were measured with a 1 cm pathlength and those between 220 and 185 nm with 0.2 cm pathlength. After normalization for pathlength (1 cm), the superimposition of two separated spectra in the 200–220 nm region was verified and the entire spectra reconstituted. The temperature of measurement was controlled with a Peltier-effect temperature controller, and was usually 20°C. The structural stability of peptides was studied by measuring the variation in CD signal at 220 nm (bandwidth: 10 nm; interval: 1 s; response time: 0.5 s; pathlength: 1 cm) when the temperature was increased by 1°C/min from 20 to 85°C. All the CD experiments were performed with 20 µM peptide under 3 buffer conditions: pure water, 2 mM SDS and 10 mM potassium phosphate pH 7.4 with 200 mM KF.
The secondary structures were estimated from the CD spectra with Jasco secondary structure estimation software. The spectra from […] were decomposed to α-helix, β-sheet, β-turn and random coil elements using either Reed's or Yang's reference set as reference spectrum of each element as described, [38]. We usually obtained better fits using Reed's reference.

random coil content [4] [%] | β-sheet content [4] [%] | SMILES | Peptide incorporation (% of cells) [1] | Disintegration of MT (% of cells) [2] | Cell penetration / internalization (in words) [3] | Cell penetration / internalization in T98G cells (in words) [1] | Effect on MT network of T98G / glioma cells (in words) [2]
 |  | CC(C)C[C@H](NC(=O)[C@H](CO)NC(=O)[C@@H](NC(=O)[C@H](CCCNC(=N)N)NC(=O)[C@H](CCCNC(=N)N)NC(=O)[C@H](CO)NC(=O)[C@H](Cc1ccc(O)cc1)NC(=O)[C@H](CO)NC(=O)[C@H](CO)NC(=O)[C@H](CO)NC(=O)[C@H](CO)NC(=O)CNC(=O)[C@H](CO)NC(=O)CCCC[C@@H]1SC[C@@H]2NC(=O)N[C@@H]21)C(C)C)C(=O)N[C@@H](CO)C(=O)N[C@@H](CO)C(=O)N[C@@H](CO)C(=O)N[C@H](C(=O)N1CCC[C@H]1C(=O)N[C@@H](C)C(=O)N[C@@H](CO)C(=O)N[C@@H](Cc1ccc(O)cc1)C(=O)N[C@@H](CO)C(=O)N[C@@H](CO)C(=O)N[C@@H](Cc1ccc(O)cc1)C(N)=O)C(C)C [NFL-SBT, reference compound] (Biotin-SGSSSSYSRRVSLSSSVPASYSSY-NH2) | 0 % of cells | 32.41±0.87 % of cells | do not penetrate in cells |  | 
 |  | CC(C)C[C@H](NC(=O)[C@H](CO)NC(=O)CCCC[C@@H]1SC[C@@H]2NC(=O)N[C@@H]21)C(=O)NCC(=O)N[C@@H](CO)C(=O)N1CCC[C@H]1C(=O)N[C@@H](CO)C(=O)N[C@@H](CO)C(=O)N[C@@H](CO)C(=O)N[C@H](C(=O)N[C@@H](CCCNC(=N)N)C(=O)N[C@@H](C)C(=O)N[C@@H](CO)C(=O)N[C@@H](Cc1ccc(O)cc1)C(=O)N[C@@H](CO)C(=O)N[C@@H](CO)C(=O)N[C@@H](CO)C(=O)N[C@@H](CCCNC(=N)N)C(=O)N[C@@H](CO)C(=O)N[C@@H](Cc1ccc(O)cc1)C(=O)N[C@H](C(=O)N[C@@H](Cc1ccc(O)cc1)C(=O)N[C@@H](CO)C(=O)N[C@@H](CO)C(=O)N[C@@H](CO)C(N)=O)C(C)C)C(C)C [NFL-SCR, reference compound] (Biotin-SLGSPSSSVRASYSSSRSYVYSSS-NH2) |  | 18.18±3.2 % of cells | do not penetrate in cells |  | 
53 | 40 | CC(C)C[C@H](NC(=O)[C@H](CO)NC(=O)[C@H](CO)NC(=O)[C@H](CO)NC(=O)[C@@H](NC(=O)[C@@H]1CCCN1C(=O)[C@H](C)NC(=O)[C@H](CO)NC(=O)[C@H](Cc1ccc(O)cc1)NC(=O)[C@H](CO)NC(=O)[C@H](CO)NC(=O)[C@H](Cc1ccc(O)cc1)NC(=O)CCCC[C@@H]1SC[C@@H]2NC(=O)N[C@@H]21)C(C)C)C(=O)N[C@@H](CO)C(=O)N[C@H](C(=O)N[C@@H](CCCNC(=N)N)C(=O)N[C@@H](CCCNC(=N)N)C(=O)N[C@@H](COP(=O)(O)O)C(=O)N[C@@H](Cc1ccc(O)cc1)C(=O)N[C@@H](CO)C(=O)N[C@@H](CO)C(=O)N[C@@H](CO)C(=O)N[C@@H](CO)C(=O)NCC(=O)N[C@@H](CO)C(N)=O)C(C)C [Ser17SerP] (Biotin-YSSYSAPVSSSLSVRR[pS]YSSSSGS-NH2) | 32.8±8.7 % of cells | 22.9±1.3 % of cells |  | decreased internalization | not altered
60 | 34 | CC(C)C[C@H](NC(=O)[C@H](CO)NC(=O)[C@H](CO)NC(=O)[C@H](CO)NC(=O)[C@@H](NC(=O)[C@@H]1CCCN1C(=O)[C@H](C)NC(=O)[C@H](CO)NC(=O)[C@H](Cc1ccc(O)cc1)NC(=O)[C@H](CO)NC(=O)[C@H](CO)NC(=O)[C@H](Cc1ccc(O)cc1)NC(=O)CCCC[C@@H]1SC[C@@H]2NC(=O)N[C@@H]21)C(C)C)C(=O)N[C@@H](CO)C(=O)N[C@H](C(=O)N[C@@H](CCCNC(=N)N)C(=O)N[C@@H](CCCNC(=N)N)C(=O)N[C@@H](CO)C(=O)N[C@@H](Cc1ccc(O)cc1)C(=O)N[C@@H](COP(=O)(O)O)C(=O)N[C@@H](CO)C(=O)N[C@@H](CO)C(=O)N[C@@H](CO)C(=O)NCC(=O)N[C@@H](CO)C(N)=O)C(C)C [Ser19SerP] (Biotin-YSSYSAPVSSSLSVRRSY[pS]SSSGS-NH2) | 27.3±12.1 % of cells | 19.4±2.1 % of cells |  | decreased internalization | not altered
 |  | CC(C)C[C@H](NC(=O)[C@H](CO)NC(=O)[C@H](CO)NC(=O)[C@H](CO)NC(=O)[C@@H](NC(=O)[C@@H]1CCCN1C(=O)[C@H](C)NC(=O)[C@H](CO)NC(=O)[C@H](Cc1ccc(O)cc1)NC(=O)[C@H](CO)NC(=O)[C@H](CO)NC(=O)[C@H](Cc1ccc(O)cc1)NC(=O)CCCC[C@@H]1SC[C@@H]2NC(=O)N[C@@H]21)C(C)C)C(=O)N[C@@H](CO)C(=O)N[C@@H](C)C(=O)N[C@@H](CCCNC(=N)N)C(=O)N[C@@H](CCCNC(=N)N)C(=O)N[C@@H](CO)C(=O)N[C@@H](Cc1ccc(O)cc1)C(=O)N[C@@H](CO)C(=O)N[C@@H](CO)C(=O)N[C@@H](CO)C(=O)N[C@@H](CO)C(=O)NCC(=O)N[C@@H](CO)C(N)=O [Val14Ala] (Biotin-YSSYSAPVSSSLSARRSYSSSSGS-NH2) | 0 % of cells | 13.8±3.9 % of cells |  | fails to enter in cells | does not affect the MT network
 |  | CC(C)C[C@H](NC(=O)[C@H](CO)NC(=O)[C@H](CC(C)C)NC(=O)[C@H](CO)NC(=O)[C@H](CO)NC(=O)[C@H](CO)NC(=O)[C@@H](NC(=O)[C@@H]1CCCN1C(=O)[C@H](C)NC(=O)[C@H](CO)NC(=O)[C@H](Cc1ccc(O)cc1)NC(=O)[C@H](CO)NC(=O)[C@H](CO)NC(=O)[C@H](Cc1ccc(O)cc1)NC(=O)CCCC[C@@H]1SC[C@@H]2NC(=O)N[C@@H]21)C(C)C)C(=O)N[C@@H](CCCNC(=N)N)C(=O)N[C@@H](CCCNC(=N)N)C(=O)N[C@@H](CO)C(=O)N[C@@H](Cc1ccc(O)cc1)C(=O)N[C@@H](CO)C(=O)N[C@@H](CO)C(=O)N[C@@H](CO)C(=O)N[C@@H](CO)C(=O)NCC(=O)N[C@@H](CO)C(N)=O [Val14Leu] (Biotin-YSSYSAPVSSSLSLRRSYSSSSGS-NH2) | 44.2±2.2 % of cells | 39.2±2.4 % of cells |  |  | 
